# Measurements reported in ChEMBL document CHEMBL1136665 (Bioorg Med Chem Lett, 2003).
# Experiments:
# [1] = molecular target: T1, Prostaglandin G/H synthase 1 (Homo sapiens, UniProt P23219); assay type: tissue-based, Blood
# Description: Inhibitory concentration was measured against Prostaglandin G/H synthase 1 in human whole blood
# [2] = molecular target: T1, Prostaglandin G/H synthase 1; assay type: microsomes
# Description: Inhibitory concentration was measured against Prostaglandin G/H synthase 1 in the sensitive U937 microsome assay
# Rattus norvegicus [3] = test: Inhibition of carrageenan induced rat paw oedema.; assay type: functional
# [4] = molecular target: T2, Prostaglandin G/H synthase 2 (Homo sapiens, UniProt P35354)
# T2 sequence (P35354 whole entry): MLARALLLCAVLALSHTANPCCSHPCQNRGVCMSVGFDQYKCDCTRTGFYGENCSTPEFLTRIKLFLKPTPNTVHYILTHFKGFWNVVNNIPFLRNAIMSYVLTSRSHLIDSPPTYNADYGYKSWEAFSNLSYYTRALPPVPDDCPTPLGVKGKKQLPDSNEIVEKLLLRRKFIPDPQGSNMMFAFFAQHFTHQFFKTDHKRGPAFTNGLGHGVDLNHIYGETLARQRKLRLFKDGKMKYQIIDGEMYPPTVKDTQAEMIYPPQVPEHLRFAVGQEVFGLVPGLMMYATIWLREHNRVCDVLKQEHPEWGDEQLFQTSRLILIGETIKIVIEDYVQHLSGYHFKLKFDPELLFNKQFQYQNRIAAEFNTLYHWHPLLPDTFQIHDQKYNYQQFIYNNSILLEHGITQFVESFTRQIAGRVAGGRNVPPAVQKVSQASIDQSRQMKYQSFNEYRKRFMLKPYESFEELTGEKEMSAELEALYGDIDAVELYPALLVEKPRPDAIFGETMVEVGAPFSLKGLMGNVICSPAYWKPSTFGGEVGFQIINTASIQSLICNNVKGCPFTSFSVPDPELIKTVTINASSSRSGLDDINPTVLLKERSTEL
# [5] = molecular target: T2, Prostaglandin G/H synthase 2; remark: listed apart in the source
# Description: Inhibitory concentration was measured against Prostaglandin G/H synthase 2 in human whole blood
# [6] = Aqueous solubility was determined; assay type: physicochemical
# Rattus norvegicus [7] = species: Rattus norvegicus; test: Effective concentration to reduce pyrexia was determined in rats; assay type: functional
# Rattus norvegicus [8] = species: Rattus norvegicus; test: Inhibitory dose to produce analgesia was determined in rats; assay type: functional; settings: read-out: ID50 (the source's name)
# Rattus norvegicus [9] = species: Rattus norvegicus; test: Inhibitory dose to reduce arthritis was determined in rats; assay type: functional; settings: read-out: ID50 (the source's name)
# [10] = Clearance rate following an oral dose of 20 mg/kg in rats; assay type: ADME, organism-based; design: dose 20 mg/kg, route oral; settings: rat, in vivo, read-out: Clearance
# [11] = Peak plasma concentration (Cmax) following an oral dose of […] mg/kg in rats; assay type: ADME, organism-based; settings: rat, 20 mg/kg
# [12] = molecular target: T1, Prostaglandin G/H synthase 1; test: Inhibitory concentration was measured […] the sensitive U937 microsome assay; assay type: microsomes
# [13] = molecular target: T2, Prostaglandin G/H synthase 2; test: Inhibitory concentration was measured against Cyclooxygenase-2 in human whole blood; assay type: tissue-based
# [14] = Oral bioavailability in rat; assay type: ADME, organism-based; settings: in vivo
# T1 sequence (P23219 whole entry): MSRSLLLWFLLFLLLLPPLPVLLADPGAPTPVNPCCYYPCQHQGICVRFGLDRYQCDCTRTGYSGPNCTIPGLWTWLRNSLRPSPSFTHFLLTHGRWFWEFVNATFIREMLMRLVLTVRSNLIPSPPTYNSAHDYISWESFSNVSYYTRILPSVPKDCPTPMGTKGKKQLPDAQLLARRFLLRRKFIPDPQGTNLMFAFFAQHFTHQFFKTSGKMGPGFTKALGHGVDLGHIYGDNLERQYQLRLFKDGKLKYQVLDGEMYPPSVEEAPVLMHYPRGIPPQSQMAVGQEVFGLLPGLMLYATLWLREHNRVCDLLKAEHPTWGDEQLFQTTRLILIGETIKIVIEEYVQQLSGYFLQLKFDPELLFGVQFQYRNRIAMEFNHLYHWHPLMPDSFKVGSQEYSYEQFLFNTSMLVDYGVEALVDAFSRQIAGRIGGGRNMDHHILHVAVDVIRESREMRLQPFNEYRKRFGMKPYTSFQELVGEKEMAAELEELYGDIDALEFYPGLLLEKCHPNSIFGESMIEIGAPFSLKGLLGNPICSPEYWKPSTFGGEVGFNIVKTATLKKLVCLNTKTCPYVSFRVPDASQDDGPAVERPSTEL
SMILES,IC50 [2] [µM],ED50 (Rattus norvegicus [3]) [mg/kg],IC50 [4] [µM],IC50 [5] [µM],further results
CC1(O)OC(=O)C(c2ccc(Br)cc2)=C1c1ccc(S(C)(=O)=O)cc1 (configuration not stated),101,1.6,0.14,1.7,IC50 [1]: > 100 µM
CC1(O)OC(=O)C(c2ccc(Cl)cc2Cl)=C1c1ccc(S(C)(=O)=O)cc1 (configuration not stated),> 100,–,1.2,7.5,–
CC1(O)OC(=O)C(c2ccsc2)=C1c1ccc(S(C)(=O)=O)cc1 (configuration not stated),> 100,–,0.11,24,–
CC(=O)/C(=C(\C(=O)[O-])c1ccc(Cl)cc1)c1ccc(S(C)(=O)=O)cc1.[Na+],–,1.8,–,–,solubility [6]: > 100 mg/mL; ED50 (Rattus norvegicus [7]): 0.7 mg/kg; ED50 (Rattus norvegicus [8]): 0.8 mg/kg; ED50 (Rattus norvegicus [9]): 0.6 mg/kg
CC1(O)OC(=O)C(c2ccc(F)cc2)=C1c1ccc(S(C)(=O)=O)cc1 (configuration not stated),–,1.8,0.38,–,CL/F [10]: 2.6 mL/min; Cmax [11]: 60 µM; IC50 [12]: > 100 µM; IC50 [13]: 1.8 µM
CC1(O)OC(=O)C(c2ccc(Cl)c(Cl)c2)=C1c1ccc(S(C)(=O)=O)cc1 (configuration not stated),35,1.9,0.07,0.85,IC50 [1]: 75 µM
Cc1ccc(-c2cc(C(F)(F)F)nn2-c2ccc(S(N)(=O)=O)cc2)cc1 [CELECOXIB],–,3.2,–,–,–
CC1(O)OC(=O)C(c2ccc(F)c(Cl)c2)=C1c1ccc(S(C)(=O)=O)cc1 (configuration not stated),81,–,0.11,2.2,–
CCOC1(C)OC(=O)C(c2ccc(F)cc2)=C1c1ccc(S(C)(=O)=O)cc1 (configuration not stated),10,–,–,0.5,–
CC1(O)OC(=O)C(c2ccc3ccccc3c2)=C1c1ccc(S(C)(=O)=O)cc1 (configuration not stated),30,> 10,0.45,3.2,–
CC1(O)OC(=O)C(c2cc3ccccc3s2)=C1c1ccc(S(C)(=O)=O)cc1 (configuration not stated),> 100,–,–,–,–
CS(=O)(=O)c1ccc(C2=C(c3ccccc3)C(=O)OC2)cc1 [ROFECOXIB],–,1.5,–,–,–
CC(C)OC1(C)OC(=O)C(c2ccc(F)cc2)=C1c1ccc(S(C)(=O)=O)cc1 (configuration not stated),3,–,–,0.8,–
CC1(O)OC(=O)C(c2cc(F)cc(F)c2)=C1c1ccc(S(C)(=O)=O)cc1 (configuration not stated),> 100,–,0.55,13.4,IC50 [1]: > 90 µM
CC1(O)OC(=O)C(c2ccccc2)=C1c1ccc(S(C)(=O)=O)cc1 (configuration not stated),> 100,1.5,0.16,1.2,IC50 [1]: > 90 µM
CC1(O)OC(=O)C(c2cccc(F)c2)=C1c1ccc(S(C)(=O)=O)cc1 (configuration not stated),> 100,> 10,0.25,12.8,–
CC1(O)OC(=O)C(c2ccc(F)c(F)c2)=C1c1ccc(S(C)(=O)=O)cc1 (configuration not stated),> 300,> 10,0.2,6.3,–
CC(=O)/C(=C(\C(=O)[O-])c1ccccc1)c1ccc(S(C)(=O)=O)cc1.[Na+],–,–,–,–,solubility [6]: > 100 mg/mL
CC1(O)OC(=O)C(Oc2ccc(F)c(F)c2)=C1c1ccc(S(C)(=O)=O)cc1 (configuration not stated),> 10,–,> 5,> 33,–
COC1(C)OC(=O)C(c2ccc(F)cc2)=C1c1ccc(S(C)(=O)=O)cc1 (configuration not stated),14,2.8,0.069,–,IC50 [1]: 57 µM; IC50 [13]: 0.1 µM
CSc1ccc(C2=C(c3ccc(S(C)(=O)=O)cc3)C(C)(O)OC2=O)cc1 (configuration not stated),7,–,0.31,1.7,IC50 [1]: 38 µM
CC1(O)OC(=O)C(c2ccc(Cl)cc2)=C1c1ccc(S(C)(=O)=O)cc1 (configuration not stated),105,1.4,0.11,–,–
CC1(O)OC(=O)C(Sc2ccccc2)=C1c1ccc(S(C)(=O)=O)cc1 (configuration not stated),> 10,–,> 5,> 10,–
CC1(O)OC(=O)C(c2ccc(O)cc2)=C1c1ccc(S(C)(=O)=O)cc1 (configuration not stated),> 10,–,> 5,> 33,–
CC(C)c1ccc(C2=C(c3ccc(S(C)(=O)=O)cc3)C(C)(O)OC2=O)cc1 (configuration not stated),> 300,–,0.41,4.3,IC50 [1]: > 100 µM
CC1(OCC(F)(F)F)OC(=O)C(c2ccc(F)cc2)=C1c1ccc(S(C)(=O)=O)cc1 (configuration not stated),> 10,6.4,0.32,0.4,bioavailability [14]: 35%
CC1(O)OC(=O)C(c2cccs2)=C1c1ccc(S(C)(=O)=O)cc1 (configuration not stated),> 100,–,1.9,> 33,–
